# Laboratory results: patent US4587046A, “Drug-carrier conjugates” (The Regents of the University of California, priority 1982, dated 1986)
# Square brackets hold non-standard residues; d marks the D form. Peptide text beside a SMILES is read from it. * marks the point of attachment. Phe(4-NH2) = Nc1ccc(C[C@H](N)C(=O)O)cc1; X1 = CC(CCCCC(=O)*)NCC(O)c1ccc(O)c(O)c1; Nva(5-OH) = N[C@@H](CCCO)C(=O)O; Boc = CC(C)(C)OC(=O)*
# What was measured:
# [1] = test system: S49 cells; assay: wild type S49 cell assay, cyclic AMP accumulation (relative beta adrenergic activity); type: cell-based; conditions: in vitro, ratio of KA for isoproterenol to KA for the compound, isoproterenol = 1
# Experimental: The biological activity of the conjugates of the invention was tested in a wild type S49 cell assay. The assay is indicative of the relative beta adrenergic activity of the compound. The activity of each conjugate tested was compared to the activity of isoproterenol as the base standard. In the test, S49 cells were centrifuged and then resuspended (2 to 2.5×10^6 cells per ml.) in Dulbecco's modified Eagle medium (13.3 g per liter) and 20 mM Hepes (pH 7.4)+0.1% bovine serum albumin. The S49 suspensions were incubated at 37° C. for 10 minutes without the conjugate and then added to tubes with or without the conjugate for an additional 6 minutes. The reaction was stopped by cooling on ice. Incubation without the conjugates present established a base line. After isolation of a pellet of cells by centrifugation they were resuspended and boiled. Aliquots were then used for the competitive binding assay for cyclic AMP described by Gilman in the Procedings of the National Academy of Sciences USA 67, 305-312 (1970). Results were plotted as pmol cyclic AMP accumulated per 10^7 cells in excess of base line as a function of the log of the concentration of the analog. | ^a Biological activity was measured by cyclic AMP accumulation in S49 | cells. Relative activity is expressed as the ration of KA for | isoproterenol to KA for the compound.
# [2] = test system: rat blood pressure; assay: in vivo reduction of rat blood pressure after injection into the femoral vein; design: species or system male Sprague-Dawley rats; conditions: 0.001 to 10.0 mg/kg, ratio of molar ED50 of isoproterenol to molar ED50 of the compound (dose that reduces rat blood pressure by 50%)
# Experimental: In addition to the in vitro testing set forth above, in vivo testing was also conducted on a number of conjugates of the invention. The tests were conducted by injecting various doses of the test conjugate into the femoral vein of rats and thereafter recording changes in heart rate, arterial pulse pressure and mean pressure.
# More specifically, male Sprague-Dawley rats weighing 280-350 g had their femoral arteries connected to a Statham P-23 pressure transducer, which was in turn recorded on a Beckman Dynograph model R511A. Venus cannula were inserted in the femoral veins. Two syringes were attached to the veins via a 3-way stopcock. One syringe contained heparinized saline (40 units/ml) while the other contained the conjugate to be tested.
# All cannulas were periodically flushed with the heparinized saline to prevent clots from forming. After the blood pressure and heart rate had stabilized, a volume of heparinized saline corresponding to the volume of drug conjugate the animal was to receive, was injected, and the response observed. Then various doses of the test drug conjugate were injected with a minimum interval of ten minutes between doses. The dose range was from 0.001 to 10.0 mg/kg, with the doses always being administered in increasing amounts. From the drug injections, a dose-response curve was obtained. The response curves were then compared to the animals' response to isoproterenol administered under the same conditions. Table 3 below presents the results of these in vivo tests:
# ^a Biological activity in vivo was measured as the effective dose tha
# reduces rat blood pressure by 50%. Relative activity is expressed as the
# ratio of the molar ED50 of isoproterenol to the molar ED50 of […]
structure (smiles),measurement,setting,value
CNC(=O)CC[C@H](NC(C)=O)C(=O)N[C@@H](Cc1ccc(NC(=O)CCCCC(C)NCC(O)c2ccc(O)c(O)c2)cc1)C(=O)NCC(=O)NC (some centres unmarked) [H],Activity relative to isoproterenol,[1],3.7 × 10^-6
same,In Vivo Activity Relative to Isoproterenol,[2],1.77
CNC(=O)CC[C@H](NC(C)=O)C(=O)N[C@@H](Cc1ccc(NC(=O)CCCC(C)NCC(O)c2ccc(O)c(O)c2)cc1)C(=O)N[C@@H](CCC(=O)NC)C(=O)NC (some centres unmarked) [L],Activity relative to isoproterenol,[1],4.5 × 10^-6
"CNC(=O)CNC(=O)[C@H](Cc1ccc(NC(=O)CCCCC(C)NCC(O)c2ccc(O)c(O)c2)cc1)NC(C)=O (stereo partly drawn) [D, N^α -Acetyl-p-[6-(β-3',4-Dihydroxyphenyl-β-Hydroxy)-Ethylamino-n-Heptanoylamino]-L-Phenylalanyl-Glycyl-Methylamide]",Activity relative to isoproterenol,[1],1.1
CNC(=O)CNC(=O)[C@H](Cc1ccc(NC(=O)CCCCC(C)NCC(O)c2ccc(O)c(O)c2)cc1)NC(=O)[C@H](CCCNC(N)=O)NC(=O)OC(C)(C)C (some centres unmarked) [K],Activity relative to isoproterenol,[1],3.8 × 10^-5
same,In Vivo Activity Relative to Isoproterenol,[2],.22
CNC(=O)CNC(=O)[C@H](Cc1ccc(NC(=O)CCCCC(C)NCC(O)c2ccc(O)c(O)c2)cc1)NC(=O)[C@H](CCCNC(N)=O)NC(C)=O (some centres unmarked) [J],In Vivo Activity Relative to Isoproterenol,[2],.79
CC(=O)N[C@@H](Cc1ccc(NC(=O)CCCCC(C)NCC(O)c2ccc(O)c(O)c2)cc1)C(=O)NCCCO (some centres unmarked) [A],Activity relative to isoproterenol,[1],9.0 × 10^-2
CNC(=O)CNC(=O)[C@H](Cc1ccc(NC(=O)CCCCC(C)NCC(O)c2ccc(O)c(O)c2)cc1)NC(=O)[C@H](CCCO)NC(C)=O (some centres unmarked) [I],Activity relative to isoproterenol,[1],8.0 × 10^-5
same,In Vivo Activity Relative to Isoproterenol,[2],1.48
"CNC(=O)CC[C@H](NC(C)=O)C(=O)N[C@@H](Cc1ccc(NC(=O)CCCCC(C)NCC(O)c2ccc(O)c(O)c2)cc1)C(=O)N[C@@H](CCC(=O)NC)C(=O)NC (stereo partly drawn) [M, N^α -Acetyl-N'-Methyl-L-Glutaminyl-p-[6-(β-3',4'-Dihydroxyphenyl-β-Hydroxy)-Ethylamino-n-Heptanoylamino]-L-Phenylalanyl-N'-Methyl-L-Glutaminyl-Methylamide]",Activity relative to isoproterenol,[1],2.3 × 10^-5
CC(=O)N[C@@H](Cc1ccc(NC(=O)CCCCC(C)NCC(O)c2ccc(O)c(O)c2)cc1)C(=O)NCC(=O)O (some centres unmarked) [C],Activity relative to isoproterenol,[1],4.4 × 10^-1
"CNC(=O)CNC(=O)[C@H](Cc1ccc(NC(=O)CCCCC(C)NCC(O)c2ccc(O)c(O)c2)cc1)NC(=O)OC(C)(C)C (stereo partly drawn) [E, N^α -t-Butyloxycarbonyl-p-[6-(β-3',4'-Dihydroxyphenyl-β-Hydroxy)-Ethylamino-n-Heptanoylamino]-L-Phenylalanyl-Glycyl-Methylamide]",Activity relative to isoproterenol,[1],4.1
same,In Vivo Activity Relative to Isoproterenol,[2],3.74
CNC(=O)CNC(=O)[C@H](Cc1ccc(NC(=O)CCCCC(C)NCC(O)c2ccc(O)c(O)c2)cc1)NC(=O)[C@H](CCCO)NC(=O)[C@H](CCCO)NC(=O)[C@H](CCCO)NC(=O)OC(C)(C)C (some centres unmarked) [O] (Boc-[Nva(5-OH)][Nva(5-OH)][Nva(5-OH)][Phe(4-NH2)](X1)G-NHMe),Activity relative to isoproterenol,[1],1.0
same,In Vivo Activity Relative to Isoproterenol,[2],.76
CC(=O)N[C@H](Cc1ccc(NC(=O)CCCCC(C)NCC(O)c2ccc(O)c(O)c2)cc1)C(=O)NCCCO (some centres unmarked) [B],Activity relative to isoproterenol,[1],4.0 × 10^-1
CNC(=O)[C@H](Cc1ccc(NC(=O)CCCCC(C)NCC(O)c2ccc(O)c(O)c2)cc1)NC(=O)CNC(=O)OC(C)(C)C (some centres unmarked) [G],Activity relative to isoproterenol,[1],6.8 × 10^-1
same,In Vivo Activity Relative to Isoproterenol,[2],.92
CNC(=O)CC[C@H](NC(C)=O)C(=O)N[C@@H](Cc1ccc(NC(=O)CCCCCC(C)NCC(O)c2ccc(O)c(O)c2)cc1)C(=O)N[C@@H](CCC(=O)NC)C(=O)NC (some centres unmarked) [N],Activity relative to isoproterenol,[1],8.6 × 10^-6
CNC(=O)CNC(=O)[C@H](CCCO)NC(=O)[C@H](CCCO)NC(=O)[C@H](CCCO)NC(=O)[C@H](Cc1ccc(NC(=O)CCCCC(C)NCC(O)c2ccc(O)c(O)c2)cc1)NC(=O)OC(C)(C)C (some centres unmarked) [P] (Boc-[Phe(4-NH2)](X1)[Nva(5-OH)][Nva(5-OH)][Nva(5-OH)]G-NHMe),Activity relative to isoproterenol,[1],7.9 × 10^-1
same,In Vivo Activity Relative to Isoproterenol,[2],.59
CNC(=O)CNC(=O)[C@@H](N)Cc1ccc(NC(=O)CCCCC(C)NCC(O)c2ccc(O)c(O)c2)cc1 (some centres unmarked) [F],Activity relative to isoproterenol,[1],1.3 × 10^-4
